Assay results published in ChEMBL document CHEMBL1909046, “DrugMatrix in vitro pharmacology data”.

What was measured:
B2 bradykinin receptor = biological target: T1, B2 bradykinin receptor (Homo sapiens, UniProt P30411); type: cell membranes, Membrane; settings: chem-1; note: in other assays of this panel Not Active means under 50% inhibition at 10 µM
T1 sequence (P30411 whole entry): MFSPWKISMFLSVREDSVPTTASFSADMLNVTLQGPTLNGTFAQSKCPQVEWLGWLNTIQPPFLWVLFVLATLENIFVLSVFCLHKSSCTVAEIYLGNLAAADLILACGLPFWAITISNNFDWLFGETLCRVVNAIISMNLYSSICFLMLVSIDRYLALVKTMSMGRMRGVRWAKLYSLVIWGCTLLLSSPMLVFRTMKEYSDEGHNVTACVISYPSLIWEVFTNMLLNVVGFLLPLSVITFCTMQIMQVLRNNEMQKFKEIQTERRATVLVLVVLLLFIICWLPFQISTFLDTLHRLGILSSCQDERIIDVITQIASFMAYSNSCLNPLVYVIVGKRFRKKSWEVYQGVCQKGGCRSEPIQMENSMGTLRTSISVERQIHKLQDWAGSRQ

[1] = DRUGMATRIX: Tumor Necrosis Factor (TNF), Non-Selective radioligand binding (ligand: [125I] TNF-alpha); type: cell membranes, Membrane; settings: u-937; Not Active = under 50% inhibition at 10 µM
[2] = DRUGMATRIX: Atrial Natriuretic Factor (ANF) radioligand binding (ligand: [125I] ANF (rat)); type: cell membranes, Cavia porcellus, Dunkin-Hartley, Adrenal gland, Membrane; settings: Not Active = under 50% inhibition at 10 µM
Cathepsin G = biological target: T2, Cathepsin G (Homo sapiens, UniProt P08311); type: tissue-based; settings: neutrophil;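 note: inhibition of Cathepsin G enzyme activity, tested on an AMC-conjugated peptide substrate; in other assays of this panel Not Active means under 50% inhibition at 10 µM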
T2 sequence (P08311 whole entry): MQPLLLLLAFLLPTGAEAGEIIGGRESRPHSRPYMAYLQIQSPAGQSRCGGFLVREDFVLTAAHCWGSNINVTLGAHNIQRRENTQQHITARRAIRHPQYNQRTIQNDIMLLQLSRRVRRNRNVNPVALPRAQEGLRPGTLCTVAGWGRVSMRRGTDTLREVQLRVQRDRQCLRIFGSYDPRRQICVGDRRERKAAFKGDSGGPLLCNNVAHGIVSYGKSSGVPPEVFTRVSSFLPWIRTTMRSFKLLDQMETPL

[3] = biological target: Kappa-type opioid receptor (Homo sapiens, UniProt P41145); experiment: DRUGMATRIX: Opiate kappa (OP2, KOP) radioligand binding (ligand: [3H] Diprenorphine); type: cell membranes, HEK293, Membrane; settings: hek293; Not Active = under 50% inhibition at 10 µM
Calcitonin receptor = biological target: T3, Calcitonin receptor (Homo sapiens, UniProt P30988); type: cell membranes, Membrane; settings: t47d; note: in other assays of this panel Not Active means under 50% inhibition at 10 µM
T3 sequence (P30988 whole entry): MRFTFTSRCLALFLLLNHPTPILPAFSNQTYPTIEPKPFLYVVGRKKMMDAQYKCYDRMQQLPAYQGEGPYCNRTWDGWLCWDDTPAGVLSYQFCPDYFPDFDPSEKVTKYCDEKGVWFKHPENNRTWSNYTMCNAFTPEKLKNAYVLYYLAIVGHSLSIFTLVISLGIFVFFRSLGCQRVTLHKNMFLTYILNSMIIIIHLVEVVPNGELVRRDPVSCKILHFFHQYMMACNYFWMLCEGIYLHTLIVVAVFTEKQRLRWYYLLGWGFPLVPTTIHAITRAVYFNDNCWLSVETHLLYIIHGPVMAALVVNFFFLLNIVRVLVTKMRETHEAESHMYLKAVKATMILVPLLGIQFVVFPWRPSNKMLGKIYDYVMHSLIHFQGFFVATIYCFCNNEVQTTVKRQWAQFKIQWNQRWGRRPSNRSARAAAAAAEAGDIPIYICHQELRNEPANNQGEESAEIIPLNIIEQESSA

[4] = biological target: T4, Receptor-type tyrosine-protein phosphatase C (Homo sapiens, UniProt P08575); set-up: species or system Escherichia coli;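 note: inhibition of CD45 enzyme activity measured using DiFMUP as substrate; in other assays of this panel Not Active means under 50% inhibition at 10 µM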
T4 sequence (P08575 whole entry): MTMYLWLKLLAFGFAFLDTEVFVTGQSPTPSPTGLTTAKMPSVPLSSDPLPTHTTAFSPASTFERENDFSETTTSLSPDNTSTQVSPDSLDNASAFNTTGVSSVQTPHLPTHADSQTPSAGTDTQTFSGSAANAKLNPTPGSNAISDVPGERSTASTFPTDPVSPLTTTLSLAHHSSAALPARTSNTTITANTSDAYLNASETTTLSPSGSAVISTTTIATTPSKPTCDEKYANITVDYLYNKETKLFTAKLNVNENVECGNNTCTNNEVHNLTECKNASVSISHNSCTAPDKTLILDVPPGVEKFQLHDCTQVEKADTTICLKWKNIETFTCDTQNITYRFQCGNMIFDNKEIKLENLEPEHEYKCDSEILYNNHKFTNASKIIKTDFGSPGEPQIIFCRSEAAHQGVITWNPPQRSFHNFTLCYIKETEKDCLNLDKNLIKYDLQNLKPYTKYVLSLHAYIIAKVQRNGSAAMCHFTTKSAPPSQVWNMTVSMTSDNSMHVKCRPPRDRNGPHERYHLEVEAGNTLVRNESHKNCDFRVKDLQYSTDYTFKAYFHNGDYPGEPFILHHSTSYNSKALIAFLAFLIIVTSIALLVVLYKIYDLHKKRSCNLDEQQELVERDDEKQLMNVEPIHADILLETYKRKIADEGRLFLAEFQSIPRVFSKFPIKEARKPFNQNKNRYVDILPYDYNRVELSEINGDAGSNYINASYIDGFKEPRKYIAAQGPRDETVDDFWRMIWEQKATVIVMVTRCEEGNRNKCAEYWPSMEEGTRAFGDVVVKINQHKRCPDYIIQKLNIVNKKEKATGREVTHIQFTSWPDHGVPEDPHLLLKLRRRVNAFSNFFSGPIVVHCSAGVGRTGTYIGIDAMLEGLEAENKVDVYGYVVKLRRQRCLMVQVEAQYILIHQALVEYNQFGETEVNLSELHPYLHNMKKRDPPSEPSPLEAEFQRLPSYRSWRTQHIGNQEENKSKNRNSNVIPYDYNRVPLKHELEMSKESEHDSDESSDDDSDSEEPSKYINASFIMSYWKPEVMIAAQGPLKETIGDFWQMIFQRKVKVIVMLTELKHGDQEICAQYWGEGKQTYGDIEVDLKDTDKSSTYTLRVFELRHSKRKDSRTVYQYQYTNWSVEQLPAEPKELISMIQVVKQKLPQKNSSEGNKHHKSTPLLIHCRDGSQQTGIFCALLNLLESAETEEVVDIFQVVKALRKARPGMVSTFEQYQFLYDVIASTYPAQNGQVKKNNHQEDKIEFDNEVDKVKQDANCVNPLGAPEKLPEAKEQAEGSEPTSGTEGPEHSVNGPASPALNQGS

Sequence of Kappa-type opioid receptor (P41145 whole entry): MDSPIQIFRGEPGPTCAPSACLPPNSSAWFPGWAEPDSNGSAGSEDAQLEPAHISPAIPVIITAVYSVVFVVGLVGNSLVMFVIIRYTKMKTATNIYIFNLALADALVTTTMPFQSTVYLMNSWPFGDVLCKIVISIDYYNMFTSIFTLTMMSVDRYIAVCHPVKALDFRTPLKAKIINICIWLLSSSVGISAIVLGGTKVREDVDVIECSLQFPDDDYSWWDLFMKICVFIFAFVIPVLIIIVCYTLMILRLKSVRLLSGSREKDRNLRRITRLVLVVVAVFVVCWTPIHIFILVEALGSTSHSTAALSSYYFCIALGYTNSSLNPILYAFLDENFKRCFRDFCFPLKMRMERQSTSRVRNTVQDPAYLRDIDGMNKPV

O=C(O)CCNC(=O)c1ccc(/N=N/c2ccc(O)c(C(=O)O)c2)cc1 [BALSALAZIDE]
Not Active: IC50 (B2 bradykinin receptor) | IC50 [1] | Ki [1] | IC50 [2] | Ki [2] | IC50 (Cathepsin G) | IC50 [3] | IC50 (Calcitonin receptor) | IC50 [4]

C[S+](C)[O-] [DIMETHYL SULFOXIDE]
Not Active: IC50 (B2 bradykinin receptor) | IC50 [1] | Ki [1] | IC50 [2] | Ki [2] | IC50 (Cathepsin G) | IC50 [3] | IC50 (Calcitonin receptor) | Ki [4]

O=C(c1ccccc1F)N1CCC(Cc2ccccc2)CC1
Not Active: IC50 (B2 bradykinin receptor) | IC50 [1] | Ki [1] | IC50 [2] | Ki [2] | IC50 (Cathepsin G) | IC50 [3] | IC50 (Calcitonin receptor) | IC50 [4]

COc1cc(OC)c(C(=O)CCCN2CCCC2)c(OC)c1 [BUFLOMEDIL]
Not Active: IC50 (B2 bradykinin receptor) | IC50 [1] | Ki [1] | IC50 [2] | Ki [2] | IC50 (Cathepsin G) | IC50 [3] | IC50 (Calcitonin receptor) | IC50 [4]

COC(=O)Nc1nc2cc(C(=O)c3ccc(F)cc3)ccc2[nH]1 [FLUBENDAZOLE]
Not Active: IC50 (B2 bradykinin receptor) | IC50 [1] | Ki [1] | IC50 [2] | Ki [2] | IC50 (Cathepsin G) | IC50 [3] | IC50 (Calcitonin receptor) | IC50 [4]

COc1ccnc(C[S+]([O-])c2nc3ccc(OC(F)F)cc3[nH]2)c1OC (stereo unspecified) [PANTOPRAZOLE]
Not Active: IC50 (B2 bradykinin receptor) | IC50 [1] | Ki [1] | IC50 [2] | Ki [2] | IC50 (Cathepsin G) | IC50 [3] | IC50 (Calcitonin receptor) | IC50 [4]

CCc1ccc(CCOc2ccc(CC3SC(=O)NC3=O)cc2)nc1 (stereo unspecified) [PIOGLITAZONE]
Not Active: IC50 (B2 bradykinin receptor) | IC50 [1] | Ki [1] | IC50 [2] | Ki [2] | IC50 (Cathepsin G) | IC50 [3] | IC50 (Calcitonin receptor) | IC50 [4]

CC[C@H]1[C@@H]2C[C@H]3[C@@H]4N(C)c5ccccc5[C@]45C[C@@H]([C@@H]2[C@H]5O)N3[C@@H]1O [AJMALINE]
Not Active: IC50 (B2 bradykinin receptor) | IC50 [1] | Ki [1] | IC50 [2] | Ki [2] | IC50 (Cathepsin G) | IC50 [3] | IC50 (Calcitonin receptor) | IC50 [4]

CNC1=Nc2ccc(Cl)cc2C(c2ccccc2)=[N+]([O-])C1 [CHLORDIAZEPOXIDE]
Not Active: IC50 (B2 bradykinin receptor) | IC50 [1] | Ki [1] | IC50 [2] | Ki [2] | IC50 (Cathepsin G) | IC50 [3] | IC50 (Calcitonin receptor) | IC50 [4]

Cc1cccc(C)c1NC(=O)C1CCCCN1C (stereo unspecified) [MEPIVACAINE]
Not Active: IC50 (B2 bradykinin receptor) | IC50 [1] | Ki [1] | IC50 [2] | Ki [2] | IC50 (Cathepsin G) | IC50 [3] | IC50 (Calcitonin receptor) | IC50 [4]

CC1=NN(c2ccccc2)C(=O)C1 [EDARAVONE]
Not Active: IC50 (B2 bradykinin receptor) | IC50 [1] | Ki [1] | IC50 [2] | Ki [2] | IC50 (Cathepsin G) | IC50 [3] | IC50 (Calcitonin receptor) | IC50 [4]

CC(C)C[C@H]1C(=O)N2CCC[C@H]2[C@]2(O)O[C@](NC(=O)[C@@H]3C=C4c5cccc6[nH]cc(c56)C[C@H]4N(C)C3)(C(C)C)C(=O)N12 [ERGOCRYPTINE]
Not Active: IC50 (B2 bradykinin receptor) | IC50 [1] | Ki [1] | IC50 [2] | Ki [2] | IC50 (Cathepsin G) | IC50 [3] | IC50 (Calcitonin receptor) | IC50 [4]

Cc1cc(O)cc(C)c1Cl [CHLOROXYLENOL]
Not Active: IC50 (B2 bradykinin receptor) | IC50 [1] | Ki [1] | IC50 [2] | Ki [2] | IC50 (Cathepsin G) | IC50 [3] | IC50 (Calcitonin receptor) | IC50 [4]

CCOC(=O)c1ncn2c1CN(C)C(=O)c1cc(F)ccc1-2 [FLUMAZENIL]
Not Active: IC50 (B2 bradykinin receptor) | IC50 [1] | Ki [1] | IC50 [2] | Ki [2] | IC50 (Cathepsin G) | IC50 [3] | IC50 (Calcitonin receptor) | IC50 [4]

COc1ccc2c(c1OC)C(=O)O[C@@H]2[C@H]1c2c(cc3c(c2OC)OCO3)CCN1C [NOSCAPINE]
Not Active: IC50 (B2 bradykinin receptor) | IC50 [1] | Ki [1] | IC50 [2] | Ki [2] | IC50 (Cathepsin G) | IC50 [3] | IC50 (Calcitonin receptor) | IC50 [4]

CCN(C(C)=O)c1cccc(-c2ccnc3c(C#N)cnn23)c1 [ZALEPLON]
Not Active: IC50 (B2 bradykinin receptor) | IC50 [1] | Ki [1] | IC50 [2] | Ki [2] | IC50 (Cathepsin G) | IC50 [3] | IC50 (Calcitonin receptor) | IC50 [4]

CN1C(=O)CN=C(c2ccccc2)c2cc([N+](=O)[O-])ccc21 [NIMETAZEPAM]
Not Active: IC50 (B2 bradykinin receptor) | IC50 [1] | Ki [1] | IC50 [2] | Ki [2] | IC50 (Cathepsin G) | IC50 [3] | IC50 (Calcitonin receptor) | IC50 [4]

C[C@@H]1C/C=C/C=C/C=C/C=C/[C@H](O[C@@H]2O[C@H](C)[C@@H](O)[C@H](N)[C@@H]2O)C[C@@H]2O[C@](O)(C[C@@H](O)C[C@H]3O[C@@H]3/C=C/C(=O)O1)C[C@H](O)[C@H]2C(=O)O [NATAMYCIN]
Not Active: IC50 (B2 bradykinin receptor) | IC50 [1] | Ki [1] | IC50 [2] | Ki [2] | IC50 (Cathepsin G) | IC50 [3] | IC50 (Calcitonin receptor) | IC50 [4]

ClC(Cl)(Cl)Cl [CARBON TETRACHLORIDE]
Not Active: IC50 (B2 bradykinin receptor) | IC50 [1] | Ki [1] | IC50 [2] | Ki [2] | IC50 (Cathepsin G) | IC50 [3] | IC50 (Calcitonin receptor) | IC50 [4]
